Measurements reported in ChEMBL document CHEMBL1131910, “Exploratory solid-phase synthesis of factor Xa inhibitors: discovery and application of p3-heterocyclic amides as novel types of non-basic arginine surrogates” (Bioorg Med Chem Lett, 1999).

Legend:
[1] = biological target: T1, Coagulation factor X (Homo sapiens, UniProt P00742); assay: In vitro inhibition of human Factor Xa.
[2] = biological target: T2, Plasminogen (Homo sapiens, UniProt P00747); assay: In vitro inhibition of human thrombolytic protease Plasmin.
T2 sequence (P00747 97-580 limits assumed): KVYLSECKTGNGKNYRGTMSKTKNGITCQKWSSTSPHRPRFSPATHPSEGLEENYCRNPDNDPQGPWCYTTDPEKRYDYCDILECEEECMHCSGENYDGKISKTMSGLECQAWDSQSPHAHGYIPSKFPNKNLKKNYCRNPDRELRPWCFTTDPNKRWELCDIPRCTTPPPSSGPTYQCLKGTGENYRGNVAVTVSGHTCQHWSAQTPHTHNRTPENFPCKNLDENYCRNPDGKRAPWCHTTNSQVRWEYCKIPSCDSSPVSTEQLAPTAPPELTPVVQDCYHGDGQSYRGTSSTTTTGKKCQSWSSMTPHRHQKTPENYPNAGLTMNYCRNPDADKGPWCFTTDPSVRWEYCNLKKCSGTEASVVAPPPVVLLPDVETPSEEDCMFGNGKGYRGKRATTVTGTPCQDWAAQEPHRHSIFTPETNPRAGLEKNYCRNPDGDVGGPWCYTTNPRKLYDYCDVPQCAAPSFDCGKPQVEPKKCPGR
T2 sequence (P00747 581-810 limits assumed): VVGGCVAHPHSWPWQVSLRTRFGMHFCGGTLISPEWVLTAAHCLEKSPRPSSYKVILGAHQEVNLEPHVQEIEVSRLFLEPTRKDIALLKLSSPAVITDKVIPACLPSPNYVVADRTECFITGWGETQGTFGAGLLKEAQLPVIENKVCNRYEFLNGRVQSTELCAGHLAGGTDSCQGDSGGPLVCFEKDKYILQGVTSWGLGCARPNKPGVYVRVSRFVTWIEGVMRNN

[3] = biological target: T3, Prothrombin (Homo sapiens, UniProt P00734); assay: In vitro inhibition of human Thrombin (FIIa).
[4] = biological target: T4, Serine protease 1 (Homo sapiens, UniProt P07477); assay: In vitro inhibition of human trypsin.
T4 sequence (P07477 whole entry): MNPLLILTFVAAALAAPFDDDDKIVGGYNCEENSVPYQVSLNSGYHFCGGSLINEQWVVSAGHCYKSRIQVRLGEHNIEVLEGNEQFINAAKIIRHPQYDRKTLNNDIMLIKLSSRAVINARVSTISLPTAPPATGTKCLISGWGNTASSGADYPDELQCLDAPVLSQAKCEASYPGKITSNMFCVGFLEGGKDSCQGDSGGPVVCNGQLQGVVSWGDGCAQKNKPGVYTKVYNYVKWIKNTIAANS

[5] = biological target: T1, Coagulation factor X; assay: In vitro inhibition against human Factor Xa (FXa) was evaluated; Inactive
[6] = biological target: T2, Plasminogen; assay: In vitro inhibition against human thrombolytic protease Plasmin was evaluated; Inactive
[7] = biological target: T3, Prothrombin; assay: In vitro inhibition against human Thrombin ( FIIa) was evaluated; Inactive
[8] = biological target: T4, Serine protease 1; assay: In vitro inhibition against human trypsin was evaluated; Inactive

T1 sequence (P00742 41-179 limits assumed): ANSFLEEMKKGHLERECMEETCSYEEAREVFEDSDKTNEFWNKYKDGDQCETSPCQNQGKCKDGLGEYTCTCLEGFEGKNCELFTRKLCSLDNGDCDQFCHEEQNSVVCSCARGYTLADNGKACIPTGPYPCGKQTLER
T1 sequence (P00742 235-488 limits assumed): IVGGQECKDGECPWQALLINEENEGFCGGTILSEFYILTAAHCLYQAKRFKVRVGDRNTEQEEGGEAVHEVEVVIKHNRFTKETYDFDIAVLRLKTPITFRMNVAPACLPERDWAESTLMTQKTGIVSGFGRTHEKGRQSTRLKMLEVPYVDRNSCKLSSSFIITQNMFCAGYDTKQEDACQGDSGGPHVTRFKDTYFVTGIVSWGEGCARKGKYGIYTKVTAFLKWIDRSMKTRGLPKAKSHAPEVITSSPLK

Structure (SMILES)	IC50 [1]	IC50 [2]	IC50 [3]	IC50 [4]	IC50 [5]	IC50 [6]	IC50 [7]	IC50 [8]
N=C(N)N1CCC[C@H](NC(=O)CNC(=O)[C@@H](CCNC(=O)c2nccc3ccccc23)NC(=O)OCc2ccccc2)C1O (some centres undefined)	313 nM	> 2500 nM	> 2500 nM	> 2500 nM				
Cc1cnc(C(=O)NCC[C@@H](NC(=O)OCc2ccccc2)C(=O)NCC(=O)N[C@H]2CCCN(C(=N)N)C2O)cn1 (some centres undefined)	232 nM	> 2500 nM	> 2500 nM	40.3 nM				
N=C(N)N1CCC[C@H](NC(=O)CNC(=O)[C@@H](CCNC(=O)c2cnc3ccccc3c2)NS(=O)(=O)Cc2ccccc2)C1O (some centres undefined)	10.6 nM	250 nM	537 nM	111 nM				
N=C(N)N1CCC[C@H](NC(=O)CNC(=O)[C@@H](CCNC(=O)c2cnccn2)NC(=O)OCc2ccccc2)C1O (some centres undefined)	106 nM	2030 nM	2500 nM	30 nM				
N=C(N)N1CCC[C@H](NC(=O)CNC(=O)[C@@H](CCNC(=O)c2nccc3ccccc23)NS(=O)(=O)Cc2ccccc2)C1O (some centres undefined)	4.9 nM	730 nM	> 2500 nM	97.8 nM				
N=C(N)N1CCC[C@H](NC(=O)CNC(=O)[C@@H](CCNC(=O)c2cncc(Br)c2)NS(=O)(=O)Cc2ccccc2)C1O (some centres undefined)	10.6 nM	1060 nM	> 2500 nM	160 nM				
N=C(N)NCCCC(NS(=O)(=O)Cc1ccccc1)C(=O)NCC(=O)N[C@H]1CCCN(C(=N)N)C1O (some centres undefined)	0.7 nM		> 2500 nM	75 nM				
N=C(N)N1CCC[C@H](NC(=O)CNC(=O)[C@@H](CCNC(=O)c2cccnc2)NS(=O)(=O)Cc2ccccc2)C1O (some centres undefined)	79.1 nM	2500 nM	> 2500 nM	561 nM				
N=C(N)N1CCC[C@H](NC(=O)CNC(=O)[C@@H](CCNC(=O)c2ccc3ccccc3n2)NS(=O)(=O)Cc2ccccc2)C1O (some centres undefined)	44.4 nM	1440 nM	1270 nM	59.2 nM				
N=C(N)N1CCC[C@H](NC(=O)CNC(=O)[C@@H](CNC(=O)c2cnccn2)NS(=O)(=O)Cc2ccccc2)C1O (some centres undefined)	311 nM	1480 nM	> 2500 nM	152 nM				
N=C(N)N1CCC[C@H](NC(=O)CNC(=O)[C@@H](CCNC(=O)c2ccccc2)NS(=O)(=O)Cc2ccccc2)C1O (some centres undefined)					Not Active	Not Active	Not Active	Not Active
N=C(N)N1CCC[C@H](NC(=O)CNC(=O)[C@@H](CCNC(=O)c2ccccn2)NS(=O)(=O)Cc2ccccc2)C1O (some centres undefined)	20.5 nM	1140 nM	> 2500 nM	223 nM				
N=C(N)N1CCC[C@H](NC(=O)CNC(=O)[C@@H](CCNC(=O)c2cncc(Br)c2)NC(=O)OCc2ccccc2)C1O (some centres undefined)	313 nM	> 2500 nM	> 2500 nM	> 31.2 nM				
N=C(N)N1CCC[C@H](NC(=O)CNC(=O)[C@@H](CCNC(=O)c2cnc3ccccc3c2)NC(=O)OCc2ccccc2)C1O (some centres undefined)	169 nM	1140 nM	> 2500 nM	20.4 nM				
N=C(N)N1CCC[C@H](NC(=O)CNC(=O)[C@@H](CCNC(=O)c2cnnc3ccccc23)NS(=O)(=O)Cc2ccccc2)C1O (some centres undefined)	5.6 nM	700 nM	1770 nM	4.21 nM				
N=C(N)N1CCC[C@H](NC(=O)CNC(=O)[C@@H](CCNC(=O)c2ccc(O)nc2)NS(=O)(=O)Cc2ccccc2)C1O (some centres undefined)	6.1 nM	367 nM	> 2500 nM	26.6 nM				
N=C(N)N1CCC[C@H](NC(=O)CNC(=O)[C@@H](CCNC(=O)c2cn[nH]c2)NC(=O)OCc2ccccc2)C1O (some centres undefined)	346 nM	3270 nM	> 2500 nM	74.5 nM				
N=C(N)N1CCC[C@H](NC(=O)CNC(=O)[C@@H](CCCNC(=O)c2cnccn2)NS(=O)(=O)Cc2ccccc2)C1O (some centres undefined)	15 nM	673 nM	2500 nM	324 nM				
N=C(N)N1CCC[C@H](NC(=O)CNC(=O)[C@@H](CCNC(=O)c2cnccn2)NS(=O)(=O)Cc2ccccc2)C1O (some centres undefined)	5 nM	521 nM	> 2500 nM	166 nM				
N=C(N)N1CCC[C@H](NC(=O)CNC(=O)[C@@H](CCNC(=O)c2nc3ccccc3nc2O)NS(=O)(=O)Cc2ccccc2)C1O (some centres undefined)	> 2500 nM		> 2500 nM			Not Active		Not Active
